# Assays:
# [1] = system: ECHORC (Watergrass (Calif.)); assay: Postemergence weed control under flooded paddy conditions; assay type: in vivo, Echinochloa oryzoides; conditions: postemergence weeds, rated 3 to 4 weeks after treatment
# Summary of the method: (§1)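 Injury ratings (0–9 scale covering stand, vigor, malformation, size, chlorosis and overall appearance versus control) were made three to four weeks after treatment. Test material, about 0.0313 to 0.500 kg/ha a.i. in 50/50 v/v aqueous/acetone, was added to flood water 1.5 to 3 cm deep over 3 to 5 cm weeds and 1.5 to 2.5 leaf rice.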
# [2] = system: SETVI (Foxtail, Green); assay: Preemergence herbicidal evaluation; assay type: in vivo, Setaria viridis; conditions: preemergence, rated 4-5 weeks after treatment, 0-9 scale
# Summary of the method: (§2)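 Visual 0-9 rating vs control (stand, vigor, malformation, size, chlorosis, overall appearance), scored 4-5 wk after spraying. Seeded soil cups were treated preemergence with compound in aqueous acetone, ~0.0156-0.500 kg/ha equivalent.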
# [3] = system: MOOVA (Monochoria); assay: Preemergence weed control under flooded paddy conditions; assay type: in vivo, Monochoria vaginalis; conditions: rated 3-4 weeks after treatment
# Summary of the method: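 Flooded-pot preemergence screen with silt loam and seeds in the upper 0.5 cm. Dose about 0.0313 to 0.500 kg/ha, delivered into flood water; visual 0-9 score after 3 to 4 weeks.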
# [4] = system: ABUTH (Velvetleaf); assay: Postemergence herbicidal evaluation; assay type: in vivo, Abutilon theophrasti; conditions: postemergence
# Summary of the method: (§3)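 Each compound, dispersed in an acetone/water mix (50/50) carrying 0.5% TWEEN 20, is nozzle-sprayed at 40 psi on approximately two-week-old seedlings at about 0.0156–0.500 kg/ha. Plants are assessed 4–5 weeks afterward on a 0–9 scale relative to control; duplicate tests are averaged.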
# [5] = system: ECHORC (Watergrass (Calif.)); assay: Preemergence weed control under flooded paddy conditions; assay type: in vivo, Echinochloa oryzoides; conditions: rated 3-4 weeks after treatment
# Summary of the method: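 Herbicidal effect is scored visually on a 0-9 scale against an untreated control, three to four weeks after compounds are pipetted into the flood water (1.5 to 3 cm deep) over seeds planted in silt loam at 0.5 cm depth. Rates: about 0.0313 to 0.500 kg/ha.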
# [6] = system: CYPIR (Rice Flatsedge); assay: Postemergence weed control under flooded paddy conditions; assay type: in vivo, Cyperus iria; conditions: postemergence weeds, rated 3 to 4 weeks after treatment
# Summary of the method: as §1
# [7] = system: TRZAWR (Wheat, Winter, cv Riband); assay: Preemergence herbicidal evaluation; assay type: in vivo, Triticum aestivum; conditions: preemergence, rated 4-5 weeks after treatment, 0-9 scale
# Summary of the method: as §2
# [8] = system: ORYSAT (Rice, Tebonnet); assay: Preemergence herbicidal evaluation; assay type: in vivo, Oryza sativa, (L.) Tebonnet; conditions: preemergence, rated 4-5 weeks after treatment, 0-9 scale
# Summary of the method: as §2
# [9] = system: ECHCG (Barnyardgrass); assay: Preemergence herbicidal evaluation; assay type: in vivo, Echinochloa crus-galli; conditions: preemergence, rated 4-5 weeks after treatment, 0-9 scale
# Summary of the method: as §2
# [10] = system: IPOHE (Morningglory, Ivyleaf); assay: Postemergence herbicidal evaluation; assay type: in vivo, Ipomoea hederacea; conditions: postemergence
# Summary of the method: as §3
# [11] = system: TRZAWR (Wheat, Winter, cv Riband); assay: Postemergence herbicidal evaluation; assay type: in vivo, Triticum aestivum; conditions: postemergence
# Summary of the method: as §3
# [12] = system: CHEAL (Lambsquarters, Common); assay: Preemergence herbicidal evaluation; assay type: in vivo, Chenopodium album; conditions: preemergence, rated 4-5 weeks after treatment, 0-9 scale
# Summary of the method: as §2
# [13] = system: IPOHE (Morningglory, Ivyleaf); assay: Preemergence herbicidal evaluation; assay type: in vivo, Ipomoea hederacea; conditions: preemergence, rated 4-5 weeks after treatment, 0-9 scale
# Summary of the method: as §2
smiles,measurement,setting,value
"COC(=O)CC1SC(=Nc2cc(-n3c(=O)cc(C(F)(F)F)n(C)c3=O)c(F)cc2Cl)N(C)C1=O (stereo not shown) [Compound 88, Methyl 2-{{2-chloro-5-[3,6-dihydro-3-methyl-2,6-dioxo-4-(trifluoromethyl)-1(2H)-pyrimidinyl]-4-fluorophenyl}imino}-3-methyl-4-oxo-5-thiazolidineacetate]",Herbicidal rating ECHORC,[1]; Rate 0.0313 kg/ha,6.0
same,Herbicidal rating ECHORC,[1]; Rate 0.0625 kg/ha,6.0
same,Herbicidal rating ECHORC,[1]; Rate 0.1250 kg/ha,6.0
same,Herbicidal rating ECHORC,[1]; Rate 0.2500 kg/ha,7.0
same,SETVI rating,[2]; 0.0156 kg/ha,0.0
same,SETVI rating,[2]; 0.0313 kg/ha,0.0
same,SETVI rating,[2]; 0.0625 kg/ha,3.0
same,SETVI rating,[2]; 0.1250 kg/ha,7.0
same,SETVI rating,[2]; 0.2500 kg/ha,9.0
same,MOOVA herbicidal effect rating,[3]; 0.0313 kg/ha,9.0
same,MOOVA herbicidal effect rating,[3]; 0.0625 kg/ha,9.0
same,MOOVA herbicidal effect rating,[3]; 0.1250 kg/ha,9.0
same,MOOVA herbicidal effect rating,[3]; 0.2500 kg/ha,9.0
same,ABUTH herbicidal rating,[4]; rate 0.0158 kg/ha,9.0
same,ABUTH herbicidal rating,[4]; rate 0.0315 kg/ha,9.0
same,ABUTH herbicidal rating,[4]; rate 0.0630 kg/ha,9.0
same,ECHORC herbicidal effect rating,[5]; 0.0313 kg/ha,6.0
same,ECHORC herbicidal effect rating,[5]; 0.0625 kg/ha,6.0
same,ECHORC herbicidal effect rating,[5]; 0.1250 kg/ha,6.0
same,ECHORC herbicidal effect rating,[5]; 0.2500 kg/ha,7.0
same,Herbicidal rating CYPIR,[6]; Rate 0.0313 kg/ha,0.0
same,Herbicidal rating CYPIR,[6]; Rate 0.0625 kg/ha,0.0
same,Herbicidal rating CYPIR,[6]; Rate 0.1250 kg/ha,0.0
same,Herbicidal rating CYPIR,[6]; Rate 0.2500 kg/ha,0.0
same,TRZAWR rating,[7]; 0.0156 kg/ha,0.0
same,TRZAWR rating,[7]; 0.0313 kg/ha,0.0
same,TRZAWR rating,[7]; 0.0625 kg/ha,0.0
same,TRZAWR rating,[7]; 0.1250 kg/ha,3.0
same,TRZAWR rating,[7]; 0.2500 kg/ha,9.0
same,ORYSAT rating,[8]; 0.0156 kg/ha,0.0
same,ORYSAT rating,[8]; 0.0313 kg/ha,0.0
same,ORYSAT rating,[8]; 0.0625 kg/ha,0.0
same,ORYSAT rating,[8]; 0.1250 kg/ha,2.0
same,ORYSAT rating,[8]; 0.2500 kg/ha,7.0
same,ECHCG rating,[9]; 0.0156 kg/ha,0.0
same,ECHCG rating,[9]; 0.0313 kg/ha,0.0
same,ECHCG rating,[9]; 0.0625 kg/ha,0.0
same,ECHCG rating,[9]; 0.1250 kg/ha,0.0
same,ECHCG rating,[9]; 0.2500 kg/ha,2.0
same,IPOHE herbicidal rating,[10]; rate 0.0158 kg/ha,9.0
same,IPOHE herbicidal rating,[10]; rate 0.0315 kg/ha,9.0
same,IPOHE herbicidal rating,[10]; rate 0.0630 kg/ha,9.0
same,TRZAWR herbicidal rating,[11]; rate 0.0158 kg/ha,5.5
same,TRZAWR herbicidal rating,[11]; rate 0.0315 kg/ha,7.0
same,TRZAWR herbicidal rating,[11]; rate 0.0630 kg/ha,7.5
same,CHEAL rating,[12]; 0.0156 kg/ha,7.0
same,CHEAL rating,[12]; 0.0313 kg/ha,9.0
same,CHEAL rating,[12]; 0.0625 kg/ha,9.0
same,CHEAL rating,[12]; 0.1250 kg/ha,9.0
same,CHEAL rating,[12]; 0.2500 kg/ha,9.0
same,IPOHE rating,[13]; 0.0156 kg/ha,0.0
same,IPOHE rating,[13]; 0.0313 kg/ha,0.0
same,IPOHE rating,[13]; 0.0625 kg/ha,0.0
same,IPOHE rating,[13]; 0.1250 kg/ha,9.0
same,IPOHE rating,[13]; 0.2500 kg/ha,9.0
